Reference: US20200281928A1, “VITAMIN B1 IN HIGH DOSES FOR USE IN THE MEDICAL TREATMENT OF MOTOR SYMPTOMS OF SOME SPORADIC NEURODEGENERATIVE DISEASES, OF GENETIC ORIGIN, AND OF CLUSTER HEADACHE AND OF MIGRAINE HEADACHE” (priority 2017, published 2020)
Like-named read-outs stand apart in the source and are kept apart here.

Legend:
[1] = test system: Progressive Supranuclear Paralysis; details: for Improvement of motor symptoms: UPDRS portion III, two months of therapy; for UPDRS portion III after therapy: five 100 mg/ml vials intramuscularly per week plus low doses of other group b vitamins and magnesium, two months, scale 0-56
Method: We treated […] affected by such pathology, two women and two men with five vials intramuscularly per week of vitamin B1. A vial included 100 mg/ml of thiamine. The injection was performed each morning for the first five days of the week. The dose was determined empirically based upon the disease progression rapidity. Furthermore, low doses of all other vitamins of the group b, including folic acid, 150 mg of magnesium citrate and 150 mg of magnesium malate, were associated to the treatment. The patients were evaluated with UPDRS (Unified Parkinson's Disease Rating Scale), scale validated for all Parkinson forms. Herein the scores of third portion (portion III) of this scale will be shown, illustrating the motor problems found by the examiner.
(§1) The diagnoses were made by Italian primary neurological centres based upon anamnestic, clinical, evolutionary, neuroradiological and neurophysiological data.

[2] = test system: Cortico-Basal Degeneration; details: for Improvement of motor symptoms: UPDRS portion III, two months of therapy; for UPDRS portion III after therapy: three 100 mg/ml vials intramuscularly per week plus low doses of other group b vitamins and magnesium, two months, scale 0-56
Method: We treated two patients affected by such pathology, two men with three vials intramuscularly per week of vitamin B1. One vial included 100 mg/ml of thiamine. The injection was performed in the three odd or even midweek days. The dose was determined empirically based upon the disease progression rapidity.
Furthermore low doses of all other vitamins of the group b, including folic acid, 150 mg of magnesium citrate and 150 mg of magnesium malate, were associated to the treatment.
The patients were evaluated with UPDRS (Unified Parkinson's Disease Rating Scale), scale validated for all Parkinson forms. Herein the scores of third portion (portion III) of this scale will be shown, illustrating the motor problems found by the examiner. […] Both of them were evaluated before starting the treatment and two months after the treatment beginning.
as §1

Huntington's Chorea = details: one patient, two vials intramuscularly 100 mg/ml per week, two months
Method: We evaluated and treated one single patient. The disease is genetic and it has dominant transmission. The diagnosis was made in primary neurological centres based upon anamnestic, clinical and laboratory data. […] The first symptoms appeared about six years ago.
The patient, 56 years […], was evaluated with Unified Huntington's Disease Rating Scale (UHDRS). The scale consists of 31 items and ranges from 0 scores (absence of choreic motions) to 124 scores (maximum intensity and extension on the body of the involuntary motions of choreic type).
The first evaluation, before treatment was performed on Jun. 7, 2016, the second one, after two months of treatment with two vials intramuscularly 100 mg/ml per week was performed on Sep. 9, 2016.

## Cc1ncc(C[n+]2csc(CCO)c2C)c(N)n1 [vitamin B1, thiamine]
[1]; patient N1 (person two)
  Improvement of motor symptoms: 20.3%
[1]; patient N1 (person two), before therapy 31
  UPDRS portion III after therapy: 25 scores
[1]; patient N2 (person seven)
  Improvement of motor symptoms: 19.9%
[1]; patient N2 (person seven), before therapy 37
  UPDRS portion III after therapy: 30 scores
[1]; patient N3 (person twelve)
  Improvement of motor symptoms: 32.5%
[1]; patient N3 (person twelve), before therapy 23
  UPDRS portion III after therapy: 16 scores
[1]; patient N4
  Improvement of motor symptoms: 21.8%
[1]; patient N4, before therapy 28
  UPDRS portion III after therapy: 22 scores
[1]; patient N5
  Improvement of motor symptoms: 26.6%
[1]; patient N5, before therapy 28
  UPDRS portion III after therapy: 20 scores
[2]; patient N1 (person five)
  Improvement of motor symptoms: 57.6%
[2]; patient N1 (person five), before therapy 26
  UPDRS portion III after therapy: 15 scores
[2]; patient N2 (person six)
  Improvement of motor symptoms: 15.3%
[2]; patient N2 (person six), before therapy 35
  UPDRS portion III after therapy: 31 scores
Huntington's Chorea
  improvement of UHDRS: 27.5%
Huntington's Chorea; before treatment 62, scale 0-124
  UHDRS after treatment: 45 scores
